Laboratory results taken from US10159640B2, “Prebiotic oral care compositions containing amino acids” (COLGATE-PALMOLIVE COMPANY, priority 2013, dated 2018).

Experiments:
Assay type in all cases: cell-based
[1] = test system: Aggregatibacter actinomycetemcomitans; experiment: Extent of growth, growth curves in BHI; details: control = 1
Method: (§1) The extent of growth of the tested bacteria in response to selected compounds (Met-Pro, Phe-Glu) was investigated by setting up growth curves in a nutritionally rich medium (brain heart infusion broth (BHI), Oxoid), over 48 hours. Late exponential growth phase liquid cultures were prepared by transferring the respective bacterium from blood agar plates to BHI and overnight incubation at 37° C. in an anaerobic atmosphere for A. viscosus, V. parvula, F. nucleatum, P. gingivalis, P. intermedia, T. forsythia, A. naeslundii, and C. sputigena, and in a 5% CO2 environment for S. salivarius, S. sanguinis, S. mitis, A. actinomycetemcomitans, S. mutans, S. sobrinus and S. gordonii. Overnight cultures were transferred to BHI and adjusted to a concentration of 1×10^7 CFU/ml (colony forming units per ml) by measuring the optical density at 600 nm (OD600) (BioRad SmartSpec 3000). For each strain, 200 μl of the bacterial suspension was added to a 96-well plate containing 20 μl of the respective di-peptides. Final concentrations of the di-peptides were set to 5, 10, 20 and 25 μmol/ml. […] Plates were incubated as previously described.
(§2) For each combination of bacterium/dipeptide, and for each of their respective controls (i.e. the particular bacterium in the nutritionally rich medium with no dipeptide), the optical density was measured at 630 nm (OD630) at 0 h, 24 h and 48 h (Thermo Scientific Multiskan Ascent). Additionally, the OD630 for combinations of bacterium/dipeptide grown in a 5% CO2 environment were also measured every hour between 0 h and 9 h.
(§3) The experiment was carried out on three different days (thus providing 3 biological replicas) and on each day the experiment was carried out in quadruple (thus providing 4 technical replicas) for each combination of bacterium with dipeptide and for each control. For each day and for each combination, the average (mean) of the values obtained (as detailed above) for the four technical replicas was calculated to provide a single value for each combination on each day. The values shown in Tables 5 to 6, below, are the average (mean) of the three single values obtained for each combination of bacterium with dipeptide.

[2] = test system: Streptococcus mitis; experiment: Extent of growth, growth curves in BHI; details: control = 1
Method: as §1, §2, §3

[3] = test system: Streptococcus mutans; experiment: Extent of growth, growth curves in BHI; details: control = 1
Method: as §1, §2, §3

[4] = test system: Actinomyces viscosus; experiment: Extent of growth, growth curves in BHI; details: control = 1
Method: as §1, §2, §3

[5] = test system: Streptococcus sobrinus; experiment: Extent of growth, growth curves in BHI; details: control = 1
Method: as §1, §2, §3

[6] = test system: Streptococcus sanguinis; experiment: Extent of growth, growth curves in BHI; details: control = 1
Method: as §1, §2, §3

[7] = test system: Fusobacterium nucleatum; experiment: Extent of growth, growth curves in BHI; details: control = 1
Method: as §1, §2, §3

[8] = test system: Tannerella forsythia; experiment: Extent of growth, growth curves in BHI; details: control = 1
Method: as §1, §2, §3

[9] = test system: Actinomyces naeslundii; experiment: Extent of growth, growth curves in BHI; details: control = 1
Method: as §1, §2, §3

[10] = test system: Streptococcus salivarius; experiment: Extent of growth, growth curves in BHI; details: control = 1
Method: as §1, §2, §3

[11] = test system: Streptococcus gordonii; experiment: Extent of growth, growth curves in BHI; details: control = 1
Method: as §1, §2, §3

[12] = test system: Veillonella parvula; experiment: Extent of growth, growth curves in BHI; details: control = 1
Method: as §1, §2, §3

[13] = test system: Porphyromonas gingivalis; experiment: Extent of growth, growth curves in BHI; details: control = 1
Method: as §1, §2, §3

[14] = test system: Capnocytophaga sputigena; experiment: Extent of growth, growth curves in BHI; details: control = 1
Method: as §1, §2, §3

[15] = test system: Prevotella intermedia; experiment: Extent of growth, growth curves in BHI; details: control = 1
Method: as §1, §2, §3

[16] = test system: beneficial oral bacteria and pathogenic oral bacteria; experiment: Extent of growth, whole panel: prebiotic effect; details: threshold value of 1.25
Description: Substrates that were able to increase the growth (or maximal growth density or extent of growth) of at least one of the above beneficial bacteria while not or only minimally increasing the growth (or maximal growth density) of the pathogenic bacteria are considered to be prebiotic compounds.
as §1, §2, §3
This value was selected in order to exclude low-stimulating metabolites and avoid false positive results.

Met-Pro
extent of growth: maximal OD630 over 48 hr divided by maximal OD of control ([1]; 5 μmol/ml): 0.7454
extent of growth: maximal OD630 over 48 hr divided by maximal OD of control ([1]; 10 μmol/ml): 0.6321
extent of growth: maximal OD630 over 48 hr divided by maximal OD of control ([1]; 20 μmol/ml): 0.3282
extent of growth: maximal OD630 over 48 hr divided by maximal OD of control ([1]; 25 μmol/ml): 0.2297
extent of growth: maximal OD630 over 48 hr divided by maximal OD of control ([2]; 5 μmol/ml): 0.9134
extent of growth: maximal OD630 over 48 hr divided by maximal OD of control ([2]; 10 μmol/ml): 1.2332
extent of growth: maximal OD630 over 48 hr divided by maximal OD of control ([2]; 20 μmol/ml): 1.8922
extent of growth: maximal OD630 over 48 hr divided by maximal OD of control ([2]; 25 μmol/ml): 1.7501
extent of growth: maximal OD630 over 48 hr divided by maximal OD of control ([3]; 5 μmol/ml): 0.9473
extent of growth: maximal OD630 over 48 hr divided by maximal OD of control ([3]; 10 μmol/ml): 0.9083
extent of growth: maximal OD630 over 48 hr divided by maximal OD of control ([3]; 20 μmol/ml): 0.7929
extent of growth: maximal OD630 over 48 hr divided by maximal OD of control ([3]; 25 μmol/ml): 0.5618
extent of growth: maximal OD630 over 48 hr divided by maximal OD of control ([4]; 5 μmol/ml): 0.4873
extent of growth: maximal OD630 over 48 hr divided by maximal OD of control ([4]; 10 μmol/ml): 0.4102
extent of growth: maximal OD630 over 48 hr divided by maximal OD of control ([4]; 20 μmol/ml): 0.3154
extent of growth: maximal OD630 over 48 hr divided by maximal OD of control ([4]; 25 μmol/ml): 0.2498
extent of growth: maximal OD630 over 48 hr divided by maximal OD of control ([5]; 5 μmol/ml): 0.9294
extent of growth: maximal OD630 over 48 hr divided by maximal OD of control ([5]; 10 μmol/ml): 1.0301
extent of growth: maximal OD630 over 48 hr divided by maximal OD of control ([5]; 20 μmol/ml): 1.0167
extent of growth: maximal OD630 over 48 hr divided by maximal OD of control ([5]; 25 μmol/ml): 0.8547
extent of growth: maximal OD630 over 48 hr divided by maximal OD of control ([6]; 5 μmol/ml): 0.9059
extent of growth: maximal OD630 over 48 hr divided by maximal OD of control ([6]; 10 μmol/ml): 0.9070
extent of growth: maximal OD630 over 48 hr divided by maximal OD of control ([6]; 20 μmol/ml): 0.6852
extent of growth: maximal OD630 over 48 hr divided by maximal OD of control ([6]; 25 μmol/ml): 0.5011
extent of growth: maximal OD630 over 48 hr divided by maximal OD of control ([7]; 5 μmol/ml): 0.8422
extent of growth: maximal OD630 over 48 hr divided by maximal OD of control ([7]; 10 μmol/ml): 0.8667
extent of growth: maximal OD630 over 48 hr divided by maximal OD of control ([7]; 20 μmol/ml): 0.7782
extent of growth: maximal OD630 over 48 hr divided by maximal OD of control ([7]; 25 μmol/ml): 0.7273
extent of growth: maximal OD630 over 48 hr divided by maximal OD of control ([8]; 5 μmol/ml): 0.9244
extent of growth: maximal OD630 over 48 hr divided by maximal OD of control ([8]; 10 μmol/ml): 0.9743
extent of growth: maximal OD630 over 48 hr divided by maximal OD of control ([8]; 20 μmol/ml): 0.7533
extent of growth: maximal OD630 over 48 hr divided by maximal OD of control ([8]; 25 μmol/ml): 0.7018
extent of growth: maximal OD630 over 48 hr divided by maximal OD of control ([9]; 5 μmol/ml): 0.8420
extent of growth: maximal OD630 over 48 hr divided by maximal OD of control ([9]; 10 μmol/ml): 0.8131
extent of growth: maximal OD630 over 48 hr divided by maximal OD of control ([9]; 20 μmol/ml): 0.5466
extent of growth: maximal OD630 over 48 hr divided by maximal OD of control ([9]; 25 μmol/ml): 0.3360
extent of growth: maximal OD630 over 48 hr divided by maximal OD of control ([10]; 5 μmol/ml): 0.9729
extent of growth: maximal OD630 over 48 hr divided by maximal OD of control ([10]; 10 μmol/ml): 1.0153
extent of growth: maximal OD630 over 48 hr divided by maximal OD of control ([10]; 20 μmol/ml): 0.7572
extent of growth: maximal OD630 over 48 hr divided by maximal OD of control ([10]; 25 μmol/ml): 0.5262
extent of growth: maximal OD630 over 48 hr divided by maximal OD of control ([11]; 5 μmol/ml): 0.9757
extent of growth: maximal OD630 over 48 hr divided by maximal OD of control ([11]; 10 μmol/ml): 0.9528
extent of growth: maximal OD630 over 48 hr divided by maximal OD of control ([11]; 20 μmol/ml): 0.7735
extent of growth: maximal OD630 over 48 hr divided by maximal OD of control ([11]; 25 μmol/ml): 0.6853
extent of growth: maximal OD630 over 48 hr divided by maximal OD of control ([12]; 5 μmol/ml): 0.9980
extent of growth: maximal OD630 over 48 hr divided by maximal OD of control ([12]; 10 μmol/ml): 0.9808
extent of growth: maximal OD630 over 48 hr divided by maximal OD of control ([12]; 20 μmol/ml): 0.9516
extent of growth: maximal OD630 over 48 hr divided by maximal OD of control ([12]; 25 μmol/ml): 0.9671
extent of growth: maximal OD630 over 48 hr divided by maximal OD of control ([13]; 5 μmol/ml): 0.8702
extent of growth: maximal OD630 over 48 hr divided by maximal OD of control ([13]; 10 μmol/ml): 0.8266
extent of growth: maximal OD630 over 48 hr divided by maximal OD of control ([13]; 20 μmol/ml): 0.7021
extent of growth: maximal OD630 over 48 hr divided by maximal OD of control ([13]; 25 μmol/ml): 0.4276
extent of growth: maximal OD630 over 48 hr divided by maximal OD of control ([14]; 5 μmol/ml): 0.9618
extent of growth: maximal OD630 over 48 hr divided by maximal OD of control ([14]; 10 μmol/ml): 3.5579
extent of growth: maximal OD630 over 48 hr divided by maximal OD of control ([14]; 20 μmol/ml): 2.9796
extent of growth: maximal OD630 over 48 hr divided by maximal OD of control ([14]; 25 μmol/ml): 0.9701
extent of growth: maximal OD630 over 48 hr divided by maximal OD of control ([15]; 5 μmol/ml): 0.9177
extent of growth: maximal OD630 over 48 hr divided by maximal OD of control ([15]; 10 μmol/ml): 0.9742
extent of growth: maximal OD630 over 48 hr divided by maximal OD of control ([15]; 20 μmol/ml): 0.3193
extent of growth: maximal OD630 over 48 hr divided by maximal OD of control ([15]; 25 μmol/ml): 0.2336
prebiotic effects (extent of growth) ([16]; 10 μmol/ml): exhibited prebiotic effects
prebiotic effects (extent of growth) ([16]; 20 μmol/ml): exhibited prebiotic effects
prebiotic effects (extent of growth) ([16]; 25 μmol/ml): exhibited prebiotic effects
